Measured values as given in US20030073846A1, “Aminoalcohol derivatives” (priority 2000, published 2003).
Where a name gives a salt, the structure may show the parent alone.

System: anesthetized dog
Assay: Effect on the increase in intravesical pressure induced by carbachol in anesthetized dog
Format: in vivo
Conditions: for Increase in intravesical pressure: female Beagle dogs under halothane anesthesia, N = 3, P < 0.01 vs Control; for relaxation effect on the smooth muscle in the urinary bladder: conclusion in words from the test results of Test 1
Procedure: Effect on the increase in intravesical pressure induced by carbachol in anesthetized dog
Female Beagle dogs weighing 8.0-15.0 kg were fasted for 24 hours and maintained under halothane anesthesia. A 12F Foley catheter was lubricated with water soluble jelly, inserted into the urethral orifice and advanced approximately 10 cm until the balloon tip was placed well inside the bladder. The balloon was then inflated with 5 ml of room air and catheter slowly withdrawn just part the first resistance that is felt at the bladder neck. Urine was completely drained out through the catheter, and 30 ml of biological saline was infused. The catheter was connected to pressure transducer, and intravesical pressure was continuously recorded. The test compound was injected intravenously at five minutes before the administration of carbachol (1.8 μg/kg).

SMILES: CC(C)(Cc1ccc(Oc2ccc(C(N)=O)cn2)cc1)NC[C@H](O)COc1cccc2[nH]c3ccccc3c12 [Test compound (2), (S)-4-[2-Hydroxy-3-[[2-[4-(5-carbamoyl-2-pyridyloxy)phenyl]-1,1-dimethylethyl]amino]propoxy]-carbazole hydrochloride]
- Increase in intravesical pressure (0.100 mg/kg intravenously five minutes before carbachol (1.8 μg/kg), Control 6.9 ± 0.7): 4.3 ± 0.3 mmHg
- relaxation effect on the smooth muscle in the urinary bladder: possess a relaxation effect on the smooth muscle in the urinary bladder

SMILES: OC[C@H](Cc1ccc(O)cc1)NC[C@H](O)COc1ccccc1 [Test compound (1), (S)-1-Phenoxy-3-[[(S)-1-hydroxy-3-(4-hydroxyphenyl)-2-propyl]amino]-2-propanol]
- Increase in intravesical pressure (0.032 mg/kg intravenously five minutes before carbachol (1.8 μg/kg), Control 6.8 ± 1.1): 2.0 ± 0.3 mmHg
- relaxation effect on the smooth muscle in the urinary bladder: possess a relaxation effect on the smooth muscle in the urinary bladder
